The supplement of paper PMC10307832

Experiments:
Assay in all cases: relative viability (nuclei count vs DMSO), 5 days (fraction); higher = more cells survive
[1] = compound: COc1cc(Nc2ncc(F)c(Nc3ccc4c(n3)NC(=O)C(C)(C)O4)n2)cc(OC)c1OC [R406] + CC1(C)CCC(c2ccc(Cl)cc2)=C(CN2CCN(c3ccc(C(=O)NS(=O)(=O)c4ccc(N[C@H](CCN5CCOCC5)CSc5ccccc5)c(S(=O)(=O)C(F)(F)F)c4)cc3)CC2)C1 [Navitoclax] (partner 0.5 µM)
Summary of the method: (§1)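 After 5 days of treatment, lung cancer cells in 1536-well plates were fixed and stained in a single step (final 0.05% Triton X-100, 1% formaldehyde, 1 ug/ml Hoechst) and their nuclei counted on 4× images. Treatment had been applied by pin tool the day after seeding as one drug alone or as a fixed anchor-drug dose with five library-drug doses (not always all listed) in √10 steps. Relative viability is the nuclei count of treated wells divided by that of vehicle wells, and values are medians of duplicate plates.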

[2] = compound: COc1cc(Nc2ncc(F)c(Nc3ccc4c(n3)NC(=O)C(C)(C)O4)n2)cc(OC)c1OC [R406] + CC(C)C[C@H](NC(=O)[C@H](Cc1ccccc1)NC(=O)c1cnccn1)B(O)O [Bortezomib] (partner 0.002 µM)
Summary of the method: as §1

[3] = compound: COc1cc(Nc2ncc(F)c(Nc3ccc4c(n3)NC(=O)C(C)(C)O4)n2)cc(OC)c1OC [R406] + Nc1nc2[nH]cc(CCc3ccc(C(=O)N[C@@H](CCC(=O)O)C(=O)O)cc3)c2c(=O)[nH]1 [Pemetrexed] (partner 0.2 µM)
Summary of the method: as §1

[4] = compound: O=C(/C=C/c1cccnc1)NCCCCC1CCN(C(=O)c2ccccc2)CC1 [Daporinad] + N=C(N)NC(=N)NCCc1ccccc1 [Phenformin] (partner 250 µM)
Summary of the method: as §1

Cell Line	relative viability ([1]; first compound 0.08 µM)	relative viability ([1]; first compound 0.253 µM)	relative viability ([1]; first compound 0.8 µM)	relative viability ([1]; first compound 2.53 µM)	relative viability ([1]; first compound 8 µM)	relative viability ([2]; first compound 0.08 µM)	relative viability ([2]; first compound 0.253 µM)	relative viability ([2]; first compound 0.8 µM)	relative viability ([2]; first compound 2.53 µM)	relative viability ([2]; first compound 8 µM)	relative viability ([3]; first compound 0.08 µM)	relative viability ([3]; first compound 0.253 µM)	relative viability ([3]; first compound 0.8 µM)	relative viability ([3]; first compound 2.53 µM)	relative viability ([3]; first compound 8 µM)	relative viability ([4]; first compound 0.0005 µM)	relative viability ([4]; first compound 0.001581 µM)	relative viability ([4]; first compound 0.005 µM)	relative viability ([4]; first compound 0.01581 µM)
NCI-H1666	0.627	0.879	0.932	0.941	0.413	0.803	1.03	0.853	0.336	0.617	0.825	1.05	0.86	0.718	0.674	0.586	0.563	0.602	0.562
NCI-H1734	0.789	0.982	1.13	0.813	0.607	0.828	1.16	1.05	0.344	0.269	0.394	0.417	0.453	0.45	0.322	0.437	0.496	0.479	0.299
NCI-H1755	0.983	1.04	0.982	0.573	0.483	0.994	1	0.974	0.748	0.571	0.474	0.419	0.426	0.385	0.33	0.648	0.628	0.639	0.667
NCI-H1792	0.536	0.804	0.89	0.6	0.582	0.981	0.909	1.04	0.851	0.861	0.838	1.07	1.39	0.0474	0.194	–	0.582	0.222	0.68
NCI-H1915	0.769	0.799	0.789	0.707	0.662	0.963	1.01	0.985	0.79	0.898	0.498	0.475	0.497	0.439	0.36	0.328	0.398	0.362	0.365
NCI-H1975	1.02	1.2	1.19	0.503	0.237	0.444	0.39	0.401	0.162	0.178	0.29	0.322	0.272	0.261	0.175	0.435	0.404	0.457	0.401
NCI-H1993	0.974	0.98	0.848	0.78	0.7	1.04	1.12	1.11	0.544	0.6	0.618	0.5	0.678	0.578	0.464	0.536	0.553	0.535	0.578
NCI-H2009	1.21	1.23	1.25	1.16	1.03	0.983	1.11	1.24	0.427	0.27	0.969	1.09	1.05	0.979	0.946	0.447	0.497	0.492	0.337
NCI-H2023	0.896	0.975	1.1	0.888	0.603	0.914	1.04	1.08	0.0862	0.29	0.216	0.223	0.199	0.19	0.124	0.409	0.399	0.405	0.447
NCI-H2085	1.13	1.16	1.28	1.01	0.667	0.996	1.14	1.1	0.708	0.775	0.89	0.902	0.867	0.64	0.589	0.816	0.855	0.796	0.816
NCI-H2087	1.03	0.882	1.05	1.06	0.694	0.815	1.02	0.847	0.428	0.751	0.712	0.733	0.683	0.746	0.679	0.405	0.601	0.535	0.496
